Assay results from ChEMBL document CHEMBL6134844, “Development of Next-Generation Antimalarial Acridones with Radical Cure Potential” (J Med Chem, 2025).

What was measured:
[1] = tested on: Plasmodium cynomolgi; experiment: (§1) Antiplasmodial activity against hypnozoite Plasmodium cynomolgi B strain infected in Macaca mulatta hepatocytes incubated with sporozoite containing salivary gland homogenate obtained from dissected Anopheles dirus mosquitoes (infected with Plasmodium cynomolgi B strain) treatment started on day 4 post infection and continued daily for 4 days into fresh changed media until day 8 assessed as Liver stage (LS) activity by measuring prophylactic mode by immunofluorescent staining analysis; assay type: functional, organism-based; conditions: Hepatocyte
[2] = as §1, with “Selectivity index, ratio of CC50 for Macaca mulatta hepatocytes to IC50 for antiplasmodial” for “Antiplasmodial”, “schizont” for “hypnozoite”, “radical cure” for “prophylactic”; assay type: toxicity, cell-based; conditions: rhesus monkey, read-out: Selectivity Index
[3] = as §1, with “Selectivity index, ratio of CC50 for Macaca mulatta hepatocytes to IC50 for antiplasmodial” for “Antiplasmodial”, “schizont” for “hypnozoite”; assay type: toxicity, cell-based; conditions: rhesus monkey, read-out: Selectivity Index
[4] = tested on: Hepatocyte; experiment: Cytotoxicity against Macaca mulatta hepatocytes assessed as cell viability measured after 48 hrs by MTT assay; assay type: toxicity, cell-based; conditions: rhesus monkey, 48 h
[5] = tested on: Plasmodium cynomolgi; experiment: as §1, with “schizont” for “hypnozoite”, “radical cure” for “prophylactic”; assay type: functional, organism-based; conditions: Hepatocyte
[6] = tested on: Plasmodium cynomolgi; experiment: as §1, with “radical cure” for “prophylactic”; assay type: functional, organism-based; conditions: Hepatocyte
[7] = tested on: Plasmodium cynomolgi; experiment: as §1, with “schizont” for “hypnozoite”; assay type: functional, organism-based; conditions: Hepatocyte
[8] = as §1, with “Selectivity index, ratio of CC50 for Macaca mulatta hepatocytes to IC50 for antiplasmodial” for “Antiplasmodial”, “radical cure” for “prophylactic”; assay type: toxicity, cell-based; conditions: rhesus monkey, read-out: Selectivity Index
[9] = as §1, with “Selectivity index, ratio of CC50 for Macaca mulatta hepatocytes to IC50 for antiplasmodial” for “Antiplasmodial”; assay type: toxicity, cell-based; conditions: rhesus monkey, read-out: Selectivity Index
[10] = tested on: HepG2; experiment: Cytotoxicity against human HepG2 cells assessed as cell viability measured after 48 hrs by MTT assay; assay type: functional, cell-based; conditions: HepG2, 48 h
[11] = tested on: Plasmodium falciparum; experiment: Antiplasmodial activity against asexual blood-stage (ABS) ATV-resistant clinical isolate Plasmodium falciparum Tm90-C2B infected in human erythrocytes assessed as reduction in fluorescence measured after 72 hrs by Malaria SYBR Green I-based Fluorescence (MSF) assay; assay type: functional, organism-based; conditions: Erythrocyte
[12] = tested on: Plasmodium falciparum; experiment: Antiplasmodial activity against asexual blood-stage (ABS) MDR Plasmodium falciparum Dd2 infected in human erythrocytes assessed as reduction in fluorescence measured after 72 hrs by Malaria SYBR Green I-based Fluorescence (MSF) assay; assay type: functional, organism-based; conditions: Dd2, Erythrocyte
[13] = mouse, microsomes, 1 h
[14] = tested on: Plasmodium falciparum; experiment: Antiplasmodial activity against asexual blood-stage (ABS) CQ-sensitive Plasmodium falciparum D6 infected in human erythrocytes assessed as reduction in fluorescence measured after 72 hrs by Malaria SYBR Green I-based Fluorescence (MSF) assay; assay type: functional, organism-based; conditions: D6, Erythrocyte
[15] = human, microsomes, 1 h
[16] = Toxicity in CF1 mouse infected with asexual blood-stage (ABS) Plasmodium yoelii MRA-428 assessed as ruffled hair at 0.3 to 30 mg/kg, po treated 24 hrs post infection measured after 4 days; assay type: organism-based; conditions: in vivo, 96 h, dose 0.3-30 mg/kg, time 4 day
[17] = Toxicity in CF1 mouse infected with asexual blood-stage (ABS) Plasmodium yoelii MRA-428 assessed as hyperactivity at 0.3 to 30 mg/kg, po treated 24 hrs post infection measured after 4 days; assay type: organism-based; conditions: in vivo, 96 h, dose 0.3-30 mg/kg, time 4 day
[18] = Toxicity in CF1 mouse infected with asexual blood-stage (ABS) Plasmodium yoelii MRA-428 assessed as hunching at 0.3 to 30 mg/kg, po treated 24 hrs post infection measured after 4 days; assay type: organism-based; conditions: in vivo, 96 h, dose 0.3-30 mg/kg, time 4 day
[19] = Toxicity in CF1 mouse infected with asexual blood-stage (ABS) Plasmodium yoelii MRA-428 assessed as lethargy at 0.3 to 30 mg/kg, po treated 24 hrs post infection measured after 4 days; assay type: organism-based; conditions: in vivo, 96 h, dose 0.3-30 mg/kg, time 4 day
[20] = Toxicity in CF1 mouse infected with asexual blood-stage (ABS) Plasmodium yoelii MRA-428 assessed as weight loss at 0.3 to 30 mg/kg, po treated 24 hrs post infection measured after 4 days; assay type: organism-based; conditions: in vivo, 96 h, dose 0.3-30 mg/kg, time 4 day

Row | Structure (SMILES) | IC50 [1] [nM] | selectivity ratio at 96 h [2] | selectivity ratio at 96 h [3] | CC50 [4] [nM] | IC50 [5] [nM] | IC50 [6] [nM] | IC50 [7] [nM] | selectivity ratio at 96 h [8] | selectivity ratio at 96 h [9] | IC50 [10] [nM] | IC50 [11] [nM] | IC50 [12] [nM] | CLH [13] [µL/min/mg] | IC50 [14] [nM] | t1/2 [15] [h] | Activity [16] | Activity [17] | Activity [18] | Activity [19] | Activity [20]
1 | CO[C@@H]1[C@@H](OC)[C@H](C)[C@@](O)(CC(=O)O)O[C@H]1[C@H](C)[C@H]1O[C@@]2(CC[C@@](C)([C@H]3CC[C@@](C)([C@@H]4O[C@@H]([C@H]5O[C@](C)(O)[C@H](C)C[C@@H]5C)C[C@@H]4O[C@@H]4C[C@H](OC)[C@@H](OC)[C@H](C)O4)O3)O2)C[C@H](O)[C@H]1C [MADURAMICIN ACID] | 10 | 59 | 78.7 | 2360 | 40 | 30 | 30 | 78.7 | 236 |  |  |  |  |  |  |  |  |  |  | 
2 | O=c1c2cccc(Oc3ccc(OC(F)(F)F)cc3)c2[nH]c2cc(Cl)cc(F)c12 | 13600 |  | > 6.01 | > 20000 | > 20000 | > 20000 | 3330 |  | > 1.47 | 92900 | > 2500 | 188 | 25.5 | 383 | > 1 |  |  |  |  | 
3 | O=c1c2ccc(OC3CCNCC3)cc2[nH]c2cc(F)cc(Cl)c12 | 5950 | > 1.45 | > 4.92 | > 20000 | 13800 | > 20000 | 4060 |  | > 3.36 | 48900 | > 2500 | 31.4 | 72.1 | 27.2 | > 1 |  |  |  |  | 
4 | CN(C)CCOc1ccc2c(=O)c3c([nH]c2c1)CCCC3 | > 20000 |  |  | > 20000 | > 20000 | > 20000 | > 20000 |  |  |  | > 2500 | > 2500 | > 500 | > 2500 |  | Non-toxic | Non-toxic | Non-toxic | Non-toxic | Non-toxic
5 | O=c1c2ccc(OC3CCNCC3)cc2[nH]c2cc(Cl)cc(F)c12 |  |  |  |  |  |  |  |  |  | 38200 | > 2500 | 121 |  | 662 |  |  |  |  |  | 
6 | O=c1c2ccccc2[nH]c2cc(Oc3ccc(OC(F)(F)F)cc3)ccc12 | 1570 | 1.72 | 5.85 | 3160 | 1840 | 3020 | 540 | 1.05 | 2.01 | > 200000 | 3.3 | 0.03 | 11.5 | 0.019 |  |  |  |  |  | 
7 | CN1CCC(Oc2ccc3c(=O)c4c(F)cc(Cl)cc4[nH]c3c2)CC1 | 5700 | > 2.02 | > 37 | > 20000 | 9880 | 18200 | 540 | > 1.1 | > 3.51 | 55600 | > 2500 | 23.1 | 209.5 | 11.2 |  |  |  |  |  | 
8 | O=c1c2ccc(Oc3ccc(OC(F)(F)F)cc3)cc2[nH]c2ccc(Cl)c(F)c12 | 400 | 2.17 | 91.6 | 4580 | 2110 | 4120 | 50 | 1.11 | 11.4 | > 200000 | 277 | 0.2 | < 3.125 | 0.191 | > 1 |  |  |  |  | 
